Measured values reported in patent US7638678B2, “Animal model for perimenopause and menopause and methods of inducing ovarian failure” (The Arizona Board of Regents, priority 2002, dated 2009).
“Also recorded” adds a separate entry of the source.

Legend:
FSH = experiment: Plasma FSH radioimmunoassay; assay type: in vivo, B6C3F1 mice; details: 160 mg/kg 15 d
Protocol: (§1) Treatment: Immature mice (d28) were weighed and injected i.p. with either 80 mg/kg (1, 2, or 3 times daily), 160 mg/kg (1 or 2 times daily), or 240 mg/kg (once daily) with VCD or sesame oil (vehicle control, i.p.) for 15 d resulting in a total daily exposure of 80, 160, 240, or 320 mg/kg (n=6/group). All reagents were obtained from Sigma-Aldrich (St. Louis, Mo.). Estrous cycles of each animal were monitored daily by vaginal cytology from date of vaginal opening to persistent diestrus in VCD-treated mice, and from date of vaginal opening to d120 in controls. On d8, d10, d12, d14, d15, d30, d37, d46, d57 and d120, animals were weighed, euthanized by CO2 inhalation, and the ovaries, liver and trunk blood were collected. Plasma was separated from whole blood and stored at −20° C., and liver tissues were stored at −80° C. At each time point, adrenals, kidneys, uteri, ovaries, liver, and spleen were removed, grossly examined for lesions and wet tissue weights were recorded. Additional blood samples were collected by retro-orbital puncture and plasma was collected and stored on d58, d79, d91, and d100.
Hormone Assays: Plasma FSH was measured by radioimmunoassay (RIA). Rat FSH hormone antigen, rat FSH antiserum and mouse FSH reference preparation were purchased from the National Institute of Diabetes and Digestive and Kidney diseases. Iodination reagents (Iodo-Beads™28665, 28666) were purchased from Pierce (Rockford Ill.). Briefly, a standard curve was prepared and cold standards and samples (100 μl) were added to labeled tubes along with primary antibody (1:1400 dilution) and iodinated FSH. Samples were shaken and stored at 4 C overnight. On day 2, 100 μl secondary antibody (Sigma Chemical, cat. # R9133) was added (1:10) dilution along with 200 μl of 2% normal rabbit serum and incubated at room temperature for 5 minutes. Tubes were centrifuged for 15 minutes at 3000 rpm, supernatant was decanted and pellets were counted in a gamma counter for 1 minute each. All samples were run in duplicate. The mean sensitivity of the assay was 200 pg/ml and inter- and intra-assay coefficients of variation were 2.7% and 6.7% respectively. Plasma 17β-estradiol was measured in unextracted plasma by radioimmunoassay (Diagnostic Products Inc., CA). The mean sensitivity of the assay was 5.1 pg/ml. The intra-assay coefficient of variation was 5.3%. Circulating androstenedione was measured by specific RIA. Androstenedione standards and antibody were provided by Dr. Cheryl Dyer (Northern Arizona University). The mean sensitivity of the assay was 70 pg/ml with an inter-assay coefficient of variation of 5.3%. The results of all RIAs were calculated by four-parameter logistic analysis using the software AssayZap (BioSoft, Ferguson, Mo.). Results are the mean±SEM.

[1] = system: liver enzymes AST and ALT, hepatocellular vacuolar degeneration, plasma lipids; experiment: Assessment of hepatic function and plasma lipids; assay type: in vivo, B6C3F1 mice
Protocol: Assessment of Hepatic Function: Hepatocellular vacuolar degeneration and enzymatic activity of circulating aspartate aminotransferase (AST) and alanine aminotransferase (ALT) were determined by the Diagnostic Laboratory of the Arizona Health Sciences Center. Total cholesterol and triglycerides were quantified using Sigma reagents 401-25P and 344-20 respectively. HDL was measured by precipitating apoB-containing lipoproteins (Boehringer Mannheim reagent 543004) and assaying cholesterol in the supernatant fraction using the Sigma 401-25P reagent.

[2] = cited from earlier work
androstenedione = experiment: Circulating androstenedione RIA; assay type: in vivo, B6C3F1 mice; details: 160 mg/kg 15 d
Protocol: as §1, with “Plasma was separated from whole blood and stored at −20° C., and liver tissues were stored at −80° C.” left out, “Additional blood samples were collected by retro-orbital puncture and plasma was collected and stored on d58, d79, d91, and d100.” left out
Hormone Assays: Plasma FSH was measured by radioimmunoassay (RIA). […] Tubes were centrifuged for 15 minutes at 3000 rpm, supernatant was decanted and pellets were counted in a gamma counter for 1 minute each. […] Plasma 17β-estradiol was measured in unextracted plasma by radioimmunoassay (Diagnostic Products Inc., CA). […] Circulating androstenedione was measured by specific RIA. […] The results of all RIAs were calculated by four-parameter logistic analysis using the software AssayZap (BioSoft, Ferguson, Mo.). […]

ovarian follicles = details: cited from earlier work
estrous cycle = experiment: Estrous cyclicity by vaginal cytology; assay type: in vivo, B6C3F1 mice; details: 160 mg/kg i.p.
Protocol: as §1

[3] = Body and wet tissue weights, vaginal opening; assay type: in vivo, B6C3F1 mice
Protocol: as §1

[4] = system: ovarian follicles (primordial, primary, secondary, antral); experiment: Histology and follicle counting after VCD dosing; assay type: in vivo, B6C3F1 mice
Protocol: as §1
Histology and oocyte counting: Ovaries were trimmed of fat and placed in Bouin's fixative (2 hours), transferred to 70% ethanol, paraffin-embedded and serially sectioned (4-5 μm), mounted and stained with hematoxylin and eosin. In every 20th section (10-13 sections per ovary), pre-antral follicles were classified as primordial (oocyte surrounded by a single layer of flattened granulosa cells), primary (oocyte surrounded by a single layer of cuboidal cells), secondary (oocyte surrounded by multiple layers of granulosa cells) or antral follicles (follicles containing a fluid-filled antrum). Femora were collected on d58 from both control and VCD-treated animals, fixed in 4% paraformaldehyde, transferred to formaldehyde/formic acid (Cal-Rite, Richard Allan Scientific, Kalamazoo, […]., decalcified 24 hours, vacuum embedded in paraffin and 4.5 μm sections of distal metaphysis were prepared and stained with hematoxylin and eosin.
Data Analysis: Oocyte numbers were determined in ovaries from individual animals, averaged, and the means (±SEM) in control versus treated animals were analyzed for significant differences by one-way analysis of variance (ANOVA) with significance set at p<0.05. Post-hoc tests (Tukey-Kramer) were used where appropriate. The differences in plasma hormone concentrations among treatments were analyzed using a one-way ANOVA. The correlation coefficient was determined by regression analysis.

[5] = 240 mg/kg (80 mg/kg 3× daily), 15 d, d15
[6] = 240 mg/kg (240 mg/kg 1× daily), 15 d, d15
[7] = 320 mg/kg (160 mg/kg 2× daily), 15 d, d15

SMILES: C1CC2OC2CC1C1CO1 (stereo not shown) [VCD, 4-vinylcyclohexene diepoxide]
- Plasma FSH (FSH; d37): 11.5 ± 5.7 ng/mL
- Plasma FSH (FSH; d46): 14.3 ± 1.3 ng/mL
- Plasma FSH (FSH; d58): 20.2 ± 1.2 ng/mL
- Plasma FSH (FSH; d100): 25.8 ± 0.23 ng/mL
- Plasma FSH (FSH; d120): 25.9 ± 1.1 ng/mL
- Plasma FSH (FSH; d127 (data not shown)): increased (p<0.05) relative to controls
- Circulating alanine aminotransferase (ALT) ([1]; 160 mg/kg 15 d, d1-d46): not different from controls; also recorded: within the normal range
- Circulating aspartate aminotransferase (AST) ([1]; 160 mg/kg 15 d, d1-d46): not different from controls; also recorded: within the normal range
- Total plasma cholesterol, HDL and triglycerides ([1]; d10, d15 and d37): within the normal range
- Occurrence of hepatocellular vacuolar degeneration ([1]; naive, vehicle-treated control or VCD-treated mice, any time): no difference
- Water solubility [2]: water soluble
- Relative abundance of androgen versus estrogen (androstenedione; d46): 97 % of androgen plus estrogen
- Circulating androstenedione (androstenedione; d46, plasma pools): 0.73 ± 0.05 ng/mL
- Premature ovarian failure in long term studies (ovarian follicles; F344 rats dosed with VCD): premature ovarian failure occurred within a year
- Number of primordial and primary follicles compared to vehicle controls (ovarian follicles; rats, 12 days of dosing): significant reduction
- Numbers of secondary follicles (ovarian follicles; rats, 30 days of dosing): significant reduction
- Estrous cyclicity (estrous cycle; by d58): all animals were acyclic
- Animals with irregular cycle length (estrous cycle; d15, irregular = less than 3 d or greater than 5 d): 7/24
- Adrenal, kidney and spleen weight ([3]; 160 mg/kg 15 d, any time): not affected; also recorded: no effect
- Whole body weights ([3]; 160 mg/kg 15 d, any time-point): not affected
- Increase in liver weight ([3]; 160 mg/kg 15 d, d15): 10 % above control
- Uterine weight relative to age-matched vehicle controls ([3]; 160 mg/kg 15 d, d15): 66.04%
- Increase in liver weight ([3]; 160 mg/kg 15 d, d37): 15 % above control
- Ovarian weight ([3]; 160 mg/kg 15 d, d37): 71.2 % of control
- Uterine weight relative to age-matched vehicle controls ([3]; 160 mg/kg 15 d, d37): 71.8%
- Liver weight ([3]; 160 mg/kg 15 d, d46): returned to control levels
- Ovarian weight ([3]; 160 mg/kg 15 d, d46): 61.8 % of control
- Ovarian weight ([3]; 160 mg/kg 15 d, d120): 20.7 % of control
- Uterine weight relative to age-matched vehicle controls ([3]; 160 mg/kg 15 d, d120): 47.0%
- Ovarian tissue weights across treatment groups ([3]; d10 or d15): not significantly different
- Onset of vaginal opening ([3]; not affected by VCD treatment): 31 ± 0.5 days
- Primary follicles ([4]; 80 mg/kg i.p. daily, 15 d, d15): 38.6 % of control
- Primordial follicles ([4]; 80 mg/kg i.p. daily, 15 d, ovaries d15): 12.1 % of control
- Primary follicles ([4]; 160 mg/kg (80 mg/kg 2× daily), 15 d, d15): 11.3 % of control
- Primordial follicles ([4]; 160 mg/kg (80 mg/kg 2× daily, and 160 mg/kg 1× daily), 15 d, d15): 0 % of control
- Primary follicles ([4]; 160 mg/kg (160 1× daily), 15 d, d15): 2.8 % of control
- Antral follicles on d46 ([4]; 160 mg/kg i.p. 15 d, d46): 2.6 % of control
- Primary follicles on d46 ([4]; 160 mg/kg i.p. 15 d, d46): 0.5 % of control
- Primordial follicles on d46 ([4]; 160 mg/kg i.p. 15 d, d46): no primordial follicles
- Secondary follicles on d46 ([4]; 160 mg/kg i.p. 15 d, d46): 0.7 % of control
- Primary and primordial follicle numbers over time ([4]; 160 mg/kg i.p., d8-d30): reduced (p<0.05) primary and primordial follicle numbers progressively over time
- Antral follicle numbers ([4]; 160 mg/kg, 15 d, d15-d46): progressively reduced
- Primordial follicle loss at the optimal concentration ([4]; 160 mg/kg, injected 1× daily): complete loss of primordial follicles
- Primary follicles [4, 5]: 5.1 % of control
- Primordial follicles [4, 5]: 2.1 % of control
- Primary follicles [4, 6]: 0 % of control
- Primordial follicles [4, 6]: 0 % of control
- Primary follicles [4, 7]: 0.6 % of control
- Primordial follicles [4, 7]: 0 % of control
